# Experimental data reported in patent publication US20240216392A1, “METHODS OF TREAMENT” (Arena Pharmaceuticals, Inc., priority 2022, published 2024).
# Like-named read-outs stand apart in the source and are kept apart here.
# Tests used:
# clinical = conditions: both, human, oral; for Tmax: CSF, CSF Tmax
# serum prolactin = serum prolactin pharmacodynamics, Phase 1 study; type: in vivo, human
# Method: The PD parameters listed in Table 13 were derived for serum prolactin based on actual times and were calculated using noncompartmental analysis (NCA) methods, as data permitted.
# [1] = for CSF AUCtau, geometric mean (geometric CV %) / CSF Cavg, geometric mean (geometric CV %) / CSF Cmax, geometric mean (geometric CV %) / CSF Ctrough, geometric mean (geometric CV %): Day 11
smiles,measurement,setting,value
"C[C@H]1CN2CCNCc3ccc(C(=O)NCC(F)F)c1c32 [Compound 1, (R)—N-(2,2-difluoroethyl)-7-methyl-1,2,3,4,6,7-hexahydro-[1,4]diazepino[6,7,1-hi]indole-8-carboxamide]",Kp,"clinical; CSF / free (unbound) plasma, CSF/P Cmax ratio, across all cohorts",0.663 to 0.764
same,Kp,"clinical; CSF / free (unbound) plasma, CSF/P Ctrough ratio, across all cohorts",1.26 to 1.92
same,Kp,"clinical; CSF / free drug in plasma, 6 mg, CSF/P Ctrough, mean (SD), CSF to free drug plasma ratio, Day 11, Cohort 1 (6 mg TID)",1.26
same,Kp,"clinical; CSF / free drug in plasma, 12 mg, CSF/P Ctrough, mean (SD), CSF to free drug plasma ratio, Day 11, Cohort 2 (12 mg TID)",1.31
same,Kp,"clinical; CSF / free drug in plasma, 12 mg, CSF/P Ctrough, mean (SD), CSF to free drug plasma ratio, Day 11, Cohort 3 (12 mg BID)",1.92
same,Kp,"clinical; CSF / free drug in plasma, 15 mg, CSF/P Ctrough, mean (SD), CSF to free drug plasma ratio, Day 11, Cohort 4A (15 mg BID)",1.48
same,Kp,"clinical; CSF / free drug in plasma, 18 mg, CSF/P Ctrough, mean (SD), CSF to free drug plasma ratio, Day 11, Cohort 4B (18 mg BID)",1.69
same,Tmax,"clinical; 6 mg, median (minimum, maximum), Day 11, Cohort 1 (6 mg TID)",2.52 h
same,Tmax,"clinical; 12 mg, median (minimum, maximum), Day 11, Cohort 2 (12 mg TID)",3.04 h
same,Tmax,"clinical; 12 mg, median (minimum, maximum), Day 11, Cohort 3 (12 mg BID)",2.53 h
same,Tmax,"clinical; 15 mg, median (minimum, maximum), Day 11, Cohort 4A (15 mg BID)",3.02 h
same,Tmax,"clinical; 18 mg, median (minimum, maximum), Day 11, Cohort 4B (18 mg BID)",3.06 h
same,Tmax,"clinical; Day 11, across cohorts",2.52 to 3.06 h
same,"Serum prolactin AUEC, Change From Baseline, geometric mean","serum prolactin; Day 1, Cohort 1 (3 mg doses)",13.2 ng·h/mL
same,"Serum prolactin AUEC, Raw, geometric mean","serum prolactin; Day 1, Cohort 1 (3 mg doses)",95.0 ng·h/mL
same,"Serum prolactin Emax, Change From Baseline, geometric mean","serum prolactin; Day 1, Cohort 1 (3 mg doses)",6.6 ng/mL
same,"Serum prolactin Emax, Raw, geometric mean","serum prolactin; Day 1, Cohort 1 (3 mg doses)",17.8 ng/mL
same,"Serum prolactin Tmax, Raw, median","serum prolactin; Day 1, Cohort 1 (3 mg doses)",7.84 h
same,"Serum prolactin AUEC, Change From Baseline, geometric mean","serum prolactin; Day 1, Cohort 2 (6 mg doses)",16.3 ng·h/mL
same,"Serum prolactin AUEC, Raw, geometric mean","serum prolactin; Day 1, Cohort 2 (6 mg doses)",82.5 ng·h/mL
same,"Serum prolactin Emax, Change From Baseline, geometric mean","serum prolactin; Day 1, Cohort 2 (6 mg doses)",4.4 ng/mL
same,"Serum prolactin Emax, Raw, geometric mean","serum prolactin; Day 1, Cohort 2 (6 mg doses)",13.9 ng/mL
same,"Serum prolactin Tmax, Raw, median","serum prolactin; Day 1, Cohort 2 (6 mg doses)",2.01 h
same,"Serum prolactin AUEC, Change From Baseline, geometric mean","serum prolactin; Day 1, Cohort 3 (6 mg doses)",15.0 ng·h/mL
same,"Serum prolactin AUEC, Raw, geometric mean","serum prolactin; Day 1, Cohort 3 (6 mg doses)",93.6 ng·h/mL
same,"Serum prolactin Emax, Change From Baseline, geometric mean","serum prolactin; Day 1, Cohort 3 (6 mg doses)",5.8 ng/mL
same,"Serum prolactin Emax, Raw, geometric mean","serum prolactin; Day 1, Cohort 3 (6 mg doses)",16.4 ng/mL
same,"Serum prolactin Tmax, Raw, median","serum prolactin; Day 1, Cohort 3 (6 mg doses)",1.56 h
same,"Serum prolactin AUEC, Change From Baseline, geometric mean","serum prolactin; Day 1, Cohort 4A (6 mg doses)",12.7 ng·h/mL
same,"Serum prolactin AUEC, Raw, geometric mean","serum prolactin; Day 1, Cohort 4A (6 mg doses)",99.6 ng·h/mL
same,"Serum prolactin Emax, Change From Baseline, geometric mean","serum prolactin; Day 1, Cohort 4A (6 mg doses)",9.1 ng/mL
same,"Serum prolactin Emax, Raw, geometric mean","serum prolactin; Day 1, Cohort 4A (6 mg doses)",21.5 ng/mL
same,"Serum prolactin Tmax, Raw, median","serum prolactin; Day 1, Cohort 4A (6 mg doses)",2.01 h
same,"Serum prolactin AUEC, Raw, geometric mean","serum prolactin; Day 1, Cohort 4B (6 mg doses)",80.4 ng·h/mL
same,"Serum prolactin Emax, Change From Baseline, geometric mean","serum prolactin; Day 1, Cohort 4B (6 mg doses)",4.2 ng/mL
same,"Serum prolactin Emax, Raw, geometric mean","serum prolactin; Day 1, Cohort 4B (6 mg doses)",15.6 ng/mL
same,"Serum prolactin Tmax, Raw, median","serum prolactin; Day 1, Cohort 4B (6 mg doses)",0.48 h
same,"Serum prolactin AUEC, Change From Baseline, geometric mean","serum prolactin; Day 10, Cohort 1 (6 mg TID)",20.7 ng·h/mL
same,"Serum prolactin AUEC, Raw, geometric mean","serum prolactin; Day 10, Cohort 1 (6 mg TID)",92.4 ng·h/mL
same,"Serum prolactin Emax, Change From Baseline, geometric mean","serum prolactin; Day 10, Cohort 1 (6 mg TID)",6.0 ng/mL
same,"Serum prolactin Emax, Raw, geometric mean","serum prolactin; Day 10, Cohort 1 (6 mg TID)",16.2 ng/mL
same,"Serum prolactin Tmax, Raw, median","serum prolactin; Day 10, Cohort 1 (6 mg TID)",3.00 h
same,"Serum prolactin AUEC, Change From Baseline, geometric mean","serum prolactin; Day 10, Cohort 2 (12 mg TID)",14.4 ng·h/mL
same,"Serum prolactin AUEC, Raw, geometric mean","serum prolactin; Day 10, Cohort 2 (12 mg TID)",92.0 ng·h/mL
same,"Serum prolactin Emax, Change From Baseline, geometric mean","serum prolactin; Day 10, Cohort 2 (12 mg TID)",5.8 ng/mL
same,"Serum prolactin Emax, Raw, geometric mean","serum prolactin; Day 10, Cohort 2 (12 mg TID)",16.0 ng/mL
same,"Serum prolactin Tmax, Raw, median","serum prolactin; Day 10, Cohort 2 (12 mg TID)",7.84 h
same,"Serum prolactin AUEC, Change From Baseline, geometric mean","serum prolactin; Day 10, Cohort 3 (12 mg BID)",13.5 ng·h/mL
same,"Serum prolactin AUEC, Raw, geometric mean","serum prolactin; Day 10, Cohort 3 (12 mg BID)",99.9 ng·h/mL
same,"Serum prolactin Emax, Change From Baseline, geometric mean","serum prolactin; Day 10, Cohort 3 (12 mg BID)",7.2 ng/mL
same,"Serum prolactin Emax, Raw, geometric mean","serum prolactin; Day 10, Cohort 3 (12 mg BID)",18.2 ng/mL
same,"Serum prolactin Tmax, Raw, median","serum prolactin; Day 10, Cohort 3 (12 mg BID)",1.01 h
same,"Serum prolactin AUEC, Raw, geometric mean","serum prolactin; Day 10, Cohort 4A (15 mg BID)",84.3 ng·h/mL
same,"Serum prolactin Emax, Change From Baseline, geometric mean","serum prolactin; Day 10, Cohort 4A (15 mg BID)",4.7 ng/mL
same,"Serum prolactin Emax, Raw, geometric mean","serum prolactin; Day 10, Cohort 4A (15 mg BID)",14.7 ng/mL
same,"Serum prolactin Tmax, Raw, median","serum prolactin; Day 10, Cohort 4A (15 mg BID)",2.00 h
same,"Serum prolactin AUEC, Change From Baseline, geometric mean","serum prolactin; Day 10, Cohort 4B (18 mg BID)",17.8 ng·h/mL
same,"Serum prolactin AUEC, Raw, geometric mean","serum prolactin; Day 10, Cohort 4B (18 mg BID)",99.4 ng·h/mL
same,"Serum prolactin Emax, Change From Baseline, geometric mean","serum prolactin; Day 10, Cohort 4B (18 mg BID)",8.1 ng/mL
same,"Serum prolactin Emax, Raw, geometric mean","serum prolactin; Day 10, Cohort 4B (18 mg BID)",16.7 ng/mL
same,"Serum prolactin Tmax, Raw, median","serum prolactin; Day 10, Cohort 4B (18 mg BID)",1.10 h
same,CSF concentrations exceeding the relevant Ki for 5-HT2C agonism,[1]; Cohort 2 (12 mg TID) and Cohort 4B (18 mg BID),~2 fold
same,"CSF AUCtau, geometric mean (geometric CV %)",[1]; Cohort 1 (6 mg TID),72.07 (25.7) h*ng/mL
same,"CSF Cavg, geometric mean (geometric CV %)",[1]; Cohort 1 (6 mg TID),9.261 (2.2660) ng/mL
same,"CSF Cmax, geometric mean (geometric CV %)",[1]; Cohort 1 (6 mg TID),11.88 (28.1) ng/mL
same,"CSF Ctrough, geometric mean (geometric CV %)",[1]; Cohort 1 (6 mg TID),6.524 (1.8619) ng/mL
same,"CSF AUCtau, geometric mean (geometric CV %)",[1]; Cohort 2 (12 mg TID),167.4 (60.3) h*ng/mL
same,"CSF Cavg, geometric mean (geometric CV %)",[1]; Cohort 2 (12 mg TID),24.61 (18.535) ng/mL
same,"CSF Cmax, geometric mean (geometric CV %)",[1]; Cohort 2 (12 mg TID),26.21 (57.4) ng/mL
same,"CSF Ctrough, geometric mean (geometric CV %)",[1]; Cohort 2 (12 mg TID),18.69 (12.398) ng/mL
same,"CSF AUCtau, geometric mean (geometric CV %)",[1]; Cohort 3 (12 mg BID),157.9 (34.0) h*ng/mL
same,"CSF Cavg, geometric mean (geometric CV %)",[1]; Cohort 3 (12 mg BID),13.76 (4.0021) ng/mL
same,"CSF Cmax, geometric mean (geometric CV %)",[1]; Cohort 3 (12 mg BID),21.34 (33.5) ng/mL
same,"CSF Ctrough, geometric mean (geometric CV %)",[1]; Cohort 3 (12 mg BID),7.027 (3.2364) ng/mL
same,"CSF AUCtau, geometric mean (geometric CV %)",[1]; Cohort 4A (15 mg BID),171.2 (25.4) h*ng/mL
same,"CSF Cavg, geometric mean (geometric CV %)",[1]; Cohort 4A (15 mg BID),14.63 (3.7448) ng/mL
same,"CSF Cmax, geometric mean (geometric CV %)",[1]; Cohort 4A (15 mg BID),24.27 (32.3) ng/mL
same,"CSF Ctrough, geometric mean (geometric CV %)",[1]; Cohort 4A (15 mg BID),6.512 (1.3508) ng/mL
same,"CSF AUCtau, geometric mean (geometric CV %)",[1]; Cohort 4B (18 mg BID),202.5 (30.1) h*ng/mL
same,"CSF Cavg, geometric mean (geometric CV %)",[1]; Cohort 4B (18 mg BID),17.51 (5.7327) ng/mL
same,"CSF Cmax, geometric mean (geometric CV %)",[1]; Cohort 4B (18 mg BID),30.05 (20.9) ng/mL
same,"CSF Ctrough, geometric mean (geometric CV %)",[1]; Cohort 4B (18 mg BID),7.700 (3.5802) ng/mL
